Reference: ChEMBL document CHEMBL5576051, “Synthesis of 2,2-dimethyl-chroman-based stereochemically flexible and constrained anti-breast cancer agents” (Bioorg Med Chem Lett, 2024)
Values belong to the molecule of their own block, whether it stands above or below them. Activity calls are given as the source filed them. No cut-off for these calls is given here.

Assays:
MDA-MB-231 [1] = experiment: Induction of cell cycle arrest in estrogen receptor negative human MDA-MB-231 cells assessed as accumulation of cells at G0/G1 phase at 9 uM incubated for 24 hrs (reference value: 61.44%); format: functional
MDA-MB-231 [2] = experiment: Antiproliferative activity against estrogen receptor negative human MDA-MB-231 cells assessed as inhibition of cell viability by MTT assay; format: functional, cell-based
MDA-MB-231 [3] = experiment: Induction of apoptosis in human MDA-MB-231 cells assessed as inhibition of PARP level; format: functional, cell-based
MDA-MB-231 [4] = experiment: Induction of cell cycle arrest in estrogen receptor […] human MDA-MB-231 cells assessed as accumulation of cells at S phase at 9 uM incubated for 24 hrs (reference value: 25.49%); format: functional
MCF7 [5] = experiment: Induction of apoptosis in human MCF7 cells assessed as inhibition of PARP level; format: functional, cell-based
MCF7 [6] = experiment: Induction of cell cycle arrest in estrogen receptor positive human MCF7 cells assessed as accumulation of cells at G0/G1 phase at 11uM incubated for 24 hrs (reference value: 60.49%); format: functional
MCF7 [7] = experiment: Induction of cell cycle arrest in estrogen receptor positive human MCF7 cells assessed as accumulation of cells at S phase at 11 uM incubated for 24 hrs (reference value: 20.84%); format: functional
MCF7 [8] = experiment: Induction of cell cycle arrest in estrogen receptor positive human MCF7 cells assessed as accumulation of cells at G2/M phase at 11 uM incubated for 24 hrs (reference value: 19.32%); format: functional
MCF7 [9] = experiment: Antiproliferative activity against estrogen receptor positive human MCF7 cells assessed as inhibition of cell viability by MTT assay; format: functional, cell-based
MDA-MB-231 [10] = experiment: Induction of cell cycle arrest in estrogen receptor […] human MDA-MB-231 cells assessed as accumulation of cells at G2/M phase at 9 uM incubated for 24 hrs (reference value: 13.64%); format: functional
MDA-MB-231 [11] = experiment: Induction of cell cycle arrest in estrogen receptor […] human MDA-MB-231 cells assessed as accumulation of cells at S phase at 8.8 uM incubated for 24 hrs (reference value: 25.49%); format: functional
MCF7 [12] = experiment: Induction of cell cycle arrest in estrogen receptor positive human MCF7 cells assessed as accumulation of cells at G0/G1 phase at 12.9 uM incubated for 24 hrs (reference value: 60.49%); format: functional
MDA-MB-231 [13] = experiment: Induction of cell cycle arrest in estrogen receptor negative human MDA-MB-231 cells assessed as accumulation of cells at G0/G1 phase at 8.8 uM incubated for 24 hrs (reference value: 61.44%); format: functional
MCF7 [14] = experiment: Induction of cell cycle arrest in estrogen receptor positive human MCF7 cells assessed as accumulation of cells at S phase at 12.9 uM incubated for 24 hrs (reference value: 20.84%); format: functional
MDA-MB-231 [15] = experiment: Induction of cell cycle arrest in estrogen receptor […] human MDA-MB-231 cells assessed as accumulation of cells at G2/M phase at 8.8 uM incubated for 24 hrs (reference value: 13.64%); format: functional
MCF7 [16] = experiment: Induction of cell cycle arrest in estrogen receptor positive human MCF7 cells assessed as accumulation of cells at G2/M phase at 12.9 uM incubated for 24 hrs (reference value: 19.32%); format: functional
MCF7 [17] = experiment: Induction of cell cycle arrest in estrogen receptor positive human MCF7 cells assessed as accumulation of cells at G0/G1 phase at 13.4 uM incubated for 24 hrs (reference value: 60.49%); format: functional
MDA-MB-231 [18] = experiment: Induction of cell cycle arrest in estrogen receptor […] human MDA-MB-231 cells assessed as accumulation of cells at G2/M phase at 9.2 uM incubated for 24 hrs (reference value: 13.64%); format: functional
MCF7 [19] = experiment: Induction of cell cycle arrest in estrogen receptor positive human MCF7 cells assessed as accumulation of cells at S phase at 13.4 uM incubated for 24 hrs (reference value: 20.84%); format: functional
MCF7 [20] = experiment: Induction of cell cycle arrest in estrogen receptor positive human MCF7 cells assessed as accumulation of cells at G2/M phase at 13.4 uM incubated for 24 hrs (reference value: 19.32%); format: functional
MDA-MB-231 [21] = experiment: Induction of cell cycle arrest in estrogen receptor negative human MDA-MB-231 cells assessed as accumulation of cells at G0/G1 phase at 9.2 uM incubated for 24 hrs (reference value: 61.44%); format: functional
MDA-MB-231 [22] = experiment: Induction of cell cycle arrest in estrogen receptor […] human MDA-MB-231 cells assessed as accumulation of cells at S phase at 9.2 uM incubated for 24 hrs (reference value: 25.49%); format: functional
MCF7 [23] = experiment: Induction of cell cycle arrest in estrogen receptor positive human MCF7 cells assessed as accumulation of cells at G2/M phase at 15 uM incubated for 24 hrs (reference value: 19.32%); format: functional
MCF7 [24] = experiment: Induction of cell cycle arrest in estrogen receptor positive human MCF7 cells assessed as accumulation of cells at S phase at 15 uM incubated for 24 hrs (reference value: 20.84%); format: functional
MCF7 [25] = experiment: Induction of cell cycle arrest in estrogen receptor positive human MCF7 cells assessed as accumulation of cells at G0/G1 phase at 15 uM incubated for 24 hrs (reference value: 60.49%); format: functional

SMILES: COc1ccc2c(c1)OC(C)(C)C/C2=C(\c1ccccc1)c1ccccc1OCC(C)N(C)C (stereo not given)
- Activity (MDA-MB-231 [1]): 66.73%
- IC50 (MDA-MB-231 [2]): 9 µM
- Activity (MDA-MB-231 [3]): Active
- Activity (MDA-MB-231 [4]): 21.11%
- Activity (MCF7 [5]): Active
- Activity (MCF7 [6]): 58.31%
- Activity (MCF7 [7]): 20%
- Activity (MCF7 [8]): 22.64%
- IC50 (MCF7 [9]): 11 µM
- Activity (MDA-MB-231 [10]): 12.94%

SMILES: COc1ccc2c(c1)OC(C)(C)C/C2=C(\c1ccccc1)c1ccc(O)cc1
- IC50 (MDA-MB-231 [2]): 9.5 µM
- IC50 (MCF7 [9]): 12.5 µM

SMILES: COc1ccc2c(c1)OC(C)(C)C/C2=C(\c1ccccc1)c1ccccc1OCCN(C)C
- IC50 (MDA-MB-231 [2]): 8.8 µM
- Activity (MDA-MB-231 [3]): Active
- Activity (MDA-MB-231 [11]): 16.79%
- Activity (MCF7 [5]): Active
- Activity (MCF7 [12]): 63.58%
- Activity (MDA-MB-231 [13]): 70.51%
- Activity (MCF7 [14]): 17.85%
- Activity (MDA-MB-231 [15]): 13.2%
- Activity (MCF7 [16]): 19.26%
- IC50 (MCF7 [9]): 12.9 µM

SMILES: COc1ccc2c(c1)OC(C)(C)CC2C(c1ccccc1)c1ccc(OCCN(C)C)cc1 (stereo not given)
- Activity (MDA-MB-231 [2]): inactive
- Activity (MCF7 [9]): inactive

SMILES: CCN(CC)CCOc1ccccc1/C(=C1/CC(C)(C)Oc2cc(OC)ccc21)c1ccccc1
- IC50 (MDA-MB-231 [2]): 12 µM
- IC50 (MCF7 [9]): 15 µM

SMILES: COc1ccc2c(c1)OC(C)(C)C/C2=C(\c1ccccc1)c1ccccc1OCCN1CCCCC1
- IC50 (MDA-MB-231 [2]): 12 µM
- IC50 (MCF7 [9]): 16 µM

SMILES: COc1ccc2c(c1)OC(C)(C)C/C2=C(/c1ccc(O)cc1)c1ccccc1F
- IC50 (MDA-MB-231 [2]): 17 µM
- IC50 (MCF7 [9]): 22 µM

SMILES: CC/C(=C(\c1ccccc1)c1ccc(OCCN(C)C)cc1)c1ccccc1 [TAMOXIFEN]
- IC50 (MDA-MB-231 [2]): 9.96 µM

SMILES: COc1ccc2c(c1)OC(C)(C)C/C2=C(\c1ccccc1)c1ccccc1OCCN1CCCC1
- IC50 (MDA-MB-231 [2]): 13 µM
- IC50 (MCF7 [9]): 19 µM

The next lines start with results.

- IC50 (MDA-MB-231 [2]): 11.3 µM
- IC50 (MCF7 [9]): 15.2 µM
SMILES: COc1ccc2c(c1)OC(C)(C)CC2C(c1ccccc1)c1ccc(OCC(C)N(C)C)cc1 (stereo not given)

- IC50 (MDA-MB-231 [2]): 19 µM
- IC50 (MCF7 [9]): 24 µM
SMILES: COc1ccc2c(c1)OC(C)(C)CC2C(c1ccc(OCCN(C)C)cc1)c1ccccc1F (stereo not given)

- IC50 (MDA-MB-231 [2]): 11.5 µM
- IC50 (MCF7 [9]): 15.4 µM
SMILES: CCN(CC)CCOc1ccc(C(c2ccccc2)C2CC(C)(C)Oc3cc(OC)ccc32)cc1 (stereo not given)

- IC50 (MDA-MB-231 [2]): 9.2 µM
- IC50 (MCF7 [9]): 13.4 µM
SMILES: COc1ccc2c(c1)OC(C)(C)CC2C(c1ccccc1)c1ccccc1OCCN1CCCCC1 (stereo not given)
- Activity (MCF7 [17]): 71.33%
- Activity (MDA-MB-231 [18]): 12.12%
- Activity (MDA-MB-231 [3]): Active
- Activity (MCF7 [5]): Active
- Activity (MCF7 [19]): 11.86%
- Activity (MCF7 [20]): 17.14%
- Activity (MDA-MB-231 [21]): 74.38%
- Activity (MDA-MB-231 [22]): 13.75%

- IC50 (MDA-MB-231 [2]): 9.6 µM
- IC50 (MCF7 [9]): 13.3 µM
SMILES: COc1ccc2c(c1)OC(C)(C)CC2C(c1ccccc1)c1ccc(OCCN2CCCC2)cc1 (stereo not given)

- IC50 (MDA-MB-231 [2]): 9 µM
- IC50 (MCF7 [9]): 15 µM
SMILES: CCN(CC)CCOc1ccccc1C(c1ccccc1)C1CC(C)(C)Oc2cc(OC)ccc21 (stereo not given)
- Activity (MDA-MB-231 [1]): 75.26%
- Activity (MDA-MB-231 [3]): Active
- Activity (MDA-MB-231 [4]): 13.26%
- Activity (MCF7 [23]): 20.33%
- Activity (MCF7 [5]): Active
- Activity (MCF7 [24]): 18.9%
- Activity (MCF7 [25]): 61.57%
- Activity (MDA-MB-231 [10]): 11.71%

- IC50 (MDA-MB-231 [2]): 20 µM
- IC50 (MCF7 [9]): 25 µM
SMILES: COc1ccc2c(c1)OC(C)(C)CC2C(c1ccccc1)c1ccccc1OCCN1CCCC1 (stereo not given)

- IC50 (MDA-MB-231 [2]): 12 µM
- IC50 (MCF7 [9]): 16 µM
SMILES: COc1ccc2c(c1)OC(C)(C)C/C2=C(\c1ccccc1)c1ccccc1O

- IC50 (MDA-MB-231 [2]): 9.5 µM
- IC50 (MCF7 [9]): 12.5 µM
SMILES: COc1ccc2c(c1)OC(C)(C)CC2C(c1ccccc1)c1ccc(O)cc1 (stereo not given)

- IC50 (MDA-MB-231 [2]): 8.5 µM
- IC50 (MCF7 [9]): 13.3 µM
SMILES: COc1ccc2c(c1)OC(C)(C)CC2C(c1ccccc1)c1ccc(OCCN2CCCCC2)cc1 (stereo not given)

- IC50 (MDA-MB-231 [2]): 8.5 µM
- IC50 (MCF7 [9]): 13.5 µM
SMILES: COc1ccc2c(c1)OC(C)(C)CC2C(c1ccccc1)c1ccccc1OCCN(C)C (stereo not given)

- IC50 (MDA-MB-231 [2]): 11 µM
- IC50 (MCF7 [9]): 14 µM
SMILES: COc1ccc2c(c1)OC(C)(C)CC2C(c1ccccc1)c1ccccc1OCC(C)N(C)C (stereo not given)

- IC50 (MDA-MB-231 [2]): 10.4 µM
- IC50 (MCF7 [9]): 13.6 µM
SMILES: COc1ccc2c(c1)OC(C)(C)CC2C(c1ccccc1)c1ccccc1O (stereo not given)
